Reference: publication PMC12030706, “Novel ^177Lu-Labeled [Thz^14]Bombesin(6–14) Derivatives with Low Pancreas Accumulation for Targeting Gastrin-Releasing Peptide Receptor-Expressing Cancer” (Pharmaceuticals, 2025)
Numbered stars: 1 amine (or outer) side, 2 acyl side, 3 side chain; on linkers, the order of the positions; unused ones are H or OH. Square brackets hold non-standard residues; d marks the D form. Peptide text beside a SMILES is read from it. * marks the point of attachment. DOTA = O=C(O)CN1CCN(CC(=O)O)CCN(CC(=O)*)CCN(CC(=O)O)CC1; NMeH = CN[C@@H](Cc1c[nH]cn1)C(=O)O; X1 = O=C(CN1CCC(N[*:1])CC1)[*:2]; Tle = CC(C)(C)[C@H](N)C(=O)O; Thz = O=C(O)[C@@H]1CSCN1

What was measured:
[1] = Ex vivo biodistribution in PC-3 tumor-bearing mice; conditions: mouse; for tissue uptake at 72 h: 72 h post-injection; for tissue uptake at 120 h: 120 h post-injection; for tissue uptake at 4 h: 4 h post-injection; for tissue uptake at 24 h: 24 h post-injection
Procedure: SPECT/CT imaging experiments were performed using an MILabs (Houten, The Netherlands) U-SPECT-II/CT scanner with a custom-made ultra-high-sensitivity big mouse collimator (2 mm pinhole size) following previously reported procedures. […] Male NOD.Cg-Rag1^tm1Mom Il2rg^tm1Wjl/SzJ (NRG) mice were used in these experiments because of their immunodeficient characteristics and excellent radiation tolerance. Mice were anaesthetized and subcutaneously implanted with 5 × 10^6 PC-3 prostate cancer cells (100 µL; 1:1 PBS/Matrigel) behind the left shoulder. SPECT/CT imaging and biodistribution studies were performed once the tumors reached a diameter of 5–8 mm, typically after approximately 4 weeks of growth.
For ex vivo biodistribution studies, the mice were injected with ~2–6 MBq of the radioligand. […] Blocking study was conducted at 1 h post-injection via co-injection of the radioligand with 100 μg of [D-Phe^6,Leu-NHEt^13,des-Met^14]Bombesin(6–14). Organs/tissues of interested were collected, weighed, and measured using an automatic gamma counter.

[2] = LogD7.4 measurement, shake flask method; type: physicochemical; conditions: n-octanol/DPBS pH 7.4, n = 3
Procedure: The logD7.4 values of all the ^177Lu-labeled GRPR-targeted ligands were measured using the shake flask method as previously reported. An aliquot (~2 MBq) of the radiolabeled product was added to a mixture of n-octanol (3 mL) and DPBS (3 mL, pH 7.4), followed by 1 min vortexing and 15 min centrifugation at 5000 rpm. Samples of the n-octanol (1 mL) and buffer (1 mL) layers were collected, and the activity was counted using a gamma counter. The logD7.4 values were calculated using the following equation: logD7.4=log10[countsn−octanolphase/countsbutterphase]

[3] = large intestine, Uptake in large intestine
[4] = small intestine, Uptake in small intestine

## CC(C)C[C@H](NC(=O)[C@H](Cc1cnc[nH]1)N(C)C(=O)CNC(=O)[C@@H](NC(=O)[C@H](C)NC(=O)[C@H](Cc1c[nH]c2ccccc12)NC(=O)[C@H](Cc1c[nH]cn1)NC(=O)[C@@H](Cc1ccccc1)NC(=O)CN1CCC(NC(=O)CN2CCN(CC(=O)O)CCN(CC(=O)O)CCN(CC(=O)O)CC2)CC1)C(C)(C)C)C(=O)N1CSC[C@H]1C(N)=O [[^177Lu]Lu-LW01142, metal not drawn] ({DOTA}-[X1][dF]HWA[Tle]G[NMeH]L[Thz]-NH2)
[1]; bone, Uptake in bone
  tissue uptake at 72 h: 0.03 ± 0.01 %ID/g
  tissue uptake at 120 h: 0.02 ± 0.01 %ID/g
[1]; brain, 100 ug, Uptake in brain, 1 h blocked (co-injected with 100 µg [D-Phe6,Leu-NHEt13,des-Met14]Bombesin(6-14))
  tissue uptake at 1 h: 0.03 ± 0.01 %ID/g
[1]; brain, Uptake in brain, 1 h post-injection
  tissue uptake at 1 h: 0.03 ± 0.01 %ID/g
[1]; brain, Uptake in brain
  tissue uptake at 4 h: 0.01 %ID/g
[1]; fat, 100 ug, Uptake in fat, 1 h blocked (co-injected with 100 µg [D-Phe6,Leu-NHEt13,des-Met14]Bombesin(6-14))
  tissue uptake at 1 h: 0.14 ± 0.04 %ID/g
[1]; fat, Uptake in fat, 1 h post-injection
  tissue uptake at 1 h: 0.11 ± 0.04 %ID/g
[1]; fat, Uptake in fat
  tissue uptake at 4 h: 0.02 ± 0.01 %ID/g
  tissue uptake at 24 h: 0.01 %ID/g
  tissue uptake at 72 h: 0.01 %ID/g
[1]; heart, 100 ug, Uptake in heart, 1 h blocked (co-injected with 100 µg [D-Phe6,Leu-NHEt13,des-Met14]Bombesin(6-14))
  tissue uptake at 1 h: 0.43 ± 0.14 %ID/g
[1]; heart, Uptake in heart, 1 h post-injection
  tissue uptake at 1 h: 0.45 ± 0.06 %ID/g
[1]; heart, Uptake in heart
  tissue uptake at 24 h: 0.02 ± 0.01 %ID/g
  tissue uptake at 72 h: 0.02 %ID/g
  tissue uptake at 120 h: 0.01 %ID/g
[1]; kidneys, 100 ug, Uptake in kidneys, 1 h blocked (co-injected with 100 µg [D-Phe6,Leu-NHEt13,des-Met14]Bombesin(6-14))
  tissue uptake at 1 h: 7.44 ± 1.71 %ID/g
[1]; kidneys, Uptake in kidneys
  tissue uptake at 24 h: 2.64 ± 0.94 %ID/g
  tissue uptake at 72 h: 0.6 ± 0.17 %ID/g
  tissue uptake at 120 h: 0.3 ± 0.07 %ID/g
[1]; large intestine, 100 ug, Uptake in large intestine, 1 h blocked (co-injected with 100 µg [D-Phe6,Leu-NHEt13,des-Met14]Bombesin(6-14))
  tissue uptake at 1 h: 0.31 ± 0.08 %ID/g
[1]; [3]
  tissue uptake at 4 h: 0.81 ± 0.21 %ID/g
  tissue uptake at 24 h: 0.3 ± 0.12 %ID/g
  tissue uptake at 72 h: 0.13 ± 0.05 %ID/g
  tissue uptake at 120 h: 0.07 ± 0.04 %ID/g
[1]; liver, 100 ug, Uptake in liver, 1 h blocked (co-injected with 100 µg [D-Phe6,Leu-NHEt13,des-Met14]Bombesin(6-14))
  tissue uptake at 1 h: 0.57 ± 0.15 %ID/g
[1]; liver, Uptake in liver
  tissue uptake at 4 h: 0.33 ± 0.05 %ID/g
  tissue uptake at 24 h: 0.28 ± 0.07 %ID/g
  tissue uptake at 120 h: 0.08 ± 0.02 %ID/g
[1]; lungs, Uptake in lungs, 1 h post-injection
  tissue uptake at 1 h: 1.53 ± 0.19 %ID/g
[1]; lungs, Uptake in lungs
  tissue uptake at 4 h: 0.57 ± 0.21 %ID/g
  tissue uptake at 24 h: 0.16 ± 0.08 %ID/g
  tissue uptake at 72 h: 0.03 ± 0.01 %ID/g
  tissue uptake at 120 h: 0.03 ± 0.01 %ID/g
[1]; muscle, 100 ug, Uptake in muscle, 1 h blocked (co-injected with 100 µg [D-Phe6,Leu-NHEt13,des-Met14]Bombesin(6-14))
  tissue uptake at 1 h: 0.23 ± 0.11 %ID/g
[1]; muscle, Uptake in muscle, 1 h post-injection
  tissue uptake at 1 h: 0.22 ± 0.04 %ID/g
[1]; muscle, Uptake in muscle
  tissue uptake at 4 h: 0.03 ± 0.01 %ID/g
  tissue uptake at 24 h: 0.01 %ID/g
  tissue uptake at 72 h: 0.01 %ID/g
[1]; pancreas, 100 ug, Uptake in pancreas, 1 h blocked (co-injected with 100 µg [D-Phe6,Leu-NHEt13,des-Met14]Bombesin(6-14))
  tissue uptake at 1 h: 1.88 ± 0.42 %ID/g
[1]; pancreas, Uptake in pancreas
  tissue uptake at 4 h: 1.57 ± 0.28 %ID/g
  tissue uptake at 24 h: ~1 %ID/g
  tissue uptake at 72 h: 0.68 ± 0.1 %ID/g
  tissue uptake at 120 h: 0.48 ± 0.08 %ID/g
[1]; small intestine, 100 ug, Uptake in small intestine, 1 h blocked (co-injected with 100 µg [D-Phe6,Leu-NHEt13,des-Met14]Bombesin(6-14))
  tissue uptake at 1 h: 0.54 ± 0.1 %ID/g
[1]; small intestine, Uptake in small intestine, 1 h post-injection
  tissue uptake at 1 h: 1.32 ± 0.42 %ID/g
[1]; [4]
  tissue uptake at 4 h: 0.29 ± 0.08 %ID/g
  tissue uptake at 24 h: 0.14 ± 0.03 %ID/g
  tissue uptake at 72 h: 0.05 ± 0.01 %ID/g
  tissue uptake at 120 h: 0.02 ± 0.02 %ID/g
[1]; spleen, 100 ug, Uptake in spleen, 1 h blocked (co-injected with 100 µg [D-Phe6,Leu-NHEt13,des-Met14]Bombesin(6-14))
  tissue uptake at 1 h: 0.4 ± 0.04 %ID/g
[1]; spleen, Uptake in spleen
  tissue uptake at 24 h: 0.14 ± 0.05 %ID/g
  tissue uptake at 72 h: 0.09 ± 0.02 %ID/g
  tissue uptake at 120 h: 0.09 ± 0.02 %ID/g
[1]; stomach, Uptake in stomach, 1 h post-injection
  tissue uptake at 1 h: 0.6 ± 0.24 %ID/g
[1]; stomach, Uptake in stomach
  tissue uptake at 4 h: 0.11 ± 0.04 %ID/g
  tissue uptake at 24 h: 0.16 ± 0.07 %ID/g
  tissue uptake at 120 h: 0.02 ± 0.01 %ID/g
[1]; testes, 100 ug, Uptake in testes, 1 h blocked (co-injected with 100 µg [D-Phe6,Leu-NHEt13,des-Met14]Bombesin(6-14))
  tissue uptake at 1 h: 0.48 ± 0.16 %ID/g
[1]; testes, Uptake in testes
  tissue uptake at 4 h: 0.05 ± 0.01 %ID/g
  tissue uptake at 24 h: 0.03 ± 0.01 %ID/g
  tissue uptake at 72 h: 0.02 %ID/g
  tissue uptake at 120 h: 0.01 %ID/g
[2]
  logD: -2.28 ± 0.14
